This test concerns the target antithrombin (AT) (Homo sapiens, UniProt P01008). Nature of the test: ITC. The class given is binding.

Sequence of antithrombin (AT) (P01008 33-464): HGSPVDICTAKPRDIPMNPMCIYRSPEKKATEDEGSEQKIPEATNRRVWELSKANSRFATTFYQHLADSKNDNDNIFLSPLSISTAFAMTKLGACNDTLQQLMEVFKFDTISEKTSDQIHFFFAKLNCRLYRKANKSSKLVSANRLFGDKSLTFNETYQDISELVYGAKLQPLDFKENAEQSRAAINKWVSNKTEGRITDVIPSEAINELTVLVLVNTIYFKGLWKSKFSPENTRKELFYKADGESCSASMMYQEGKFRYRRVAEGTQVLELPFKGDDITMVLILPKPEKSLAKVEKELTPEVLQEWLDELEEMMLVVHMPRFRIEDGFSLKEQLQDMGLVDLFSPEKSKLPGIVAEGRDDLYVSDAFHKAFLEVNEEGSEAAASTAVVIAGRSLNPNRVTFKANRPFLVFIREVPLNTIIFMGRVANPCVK

One may read the Kd as the concentration at which binding is half-saturated. A low value points to higher affinity. `O=C(O)[C@H]1O[C@@H](Oc2ccc([N+](=O)[O-])cc2)[C@H](O)[C@@H](O)[C@@H]1O[C@H]1O[C@H](COS(=O)(=O)O)[C@@H](O[C@@H]2O[C@@H](C(=O)O)[C@@H](O[C@H]3O[C@H](COS(=O)(=O)O)[C@@H](O[C@@H]4O[C@H](C(=O)O)[C@@H](O[C@H]5O[C@H](COS(=O)(=O)O)[C@@H](O)[C@H](O)[C@H]5NS(=O)(=O)O)[C@H](O)[C@H]4O)[C@H](OS(=O)(=O)O)[C@H]3NS(=O)(=O)O)[C@H](O)[C@H]2O)[C@H](O)[C@H]1NS(=O)(=O)O` [hexa-8]: binding was put at a Kd of 1290 nM. With `O=C(O)[C@H]1O[C@@H](Oc2ccc([N+](=O)[O-])cc2)[C@H](O)[C@@H](O)[C@@H]1O[C@H]1O[C@H](COS(=O)(=O)O)[C@@H](O[C@@H]2O[C@@H](C(=O)O)[C@@H](O[C@H]3O[C@H](COS(=O)(=O)O)[C@@H](O[C@@H]4O[C@H](C(=O)O)[C@@H](O[C@H]5O[C@H](COS(=O)(=O)O)[C@@H](O)[C@H](O)[C@H]5NS(=O)(=O)O)[C@H](O)[C@H]4O)[C@H](OS(=O)(=O)O)[C@H]3NS(=O)(=O)O)[C@H](O)[C@H]2OS(=O)(=O)O)[C@H](O)[C@H]1NS(=O)(=O)O` [hexa-4] the figure was 551 nM.

Source of the values: publication PMC6517080 (Chembiochem : a European journal of chemical biology, 2018).
